Structures can show the parent of a compound that is named as a salt.
Legend:
Bile salt export pump = Bile salt export pump (Homo sapiens, UniProt O95342); experiment: Inhibition of human BSEP overexpressed in Sf9 cell membrane vesicles assessed as uptake of [3H]-taurocholate in presence of ATP measured after 15 to 20 mins by membrane vesicle transport assay; format: ADME, cell-based
[1] = target: ATP-binding cassette sub-family C member 2 (Homo sapiens, UniProt Q92887); experiment: Inhibition of human MRP2 overexpressed in Sf9 cell membrane vesicles assessed as uptake of [3H]-estradiol-17beta-D-glucuronide in presence of ATP and GSH measured after 20 mins by membrane vesicle transport assay
ATP-binding cassette sub-family C member 2, sequence (Q92887 whole entry): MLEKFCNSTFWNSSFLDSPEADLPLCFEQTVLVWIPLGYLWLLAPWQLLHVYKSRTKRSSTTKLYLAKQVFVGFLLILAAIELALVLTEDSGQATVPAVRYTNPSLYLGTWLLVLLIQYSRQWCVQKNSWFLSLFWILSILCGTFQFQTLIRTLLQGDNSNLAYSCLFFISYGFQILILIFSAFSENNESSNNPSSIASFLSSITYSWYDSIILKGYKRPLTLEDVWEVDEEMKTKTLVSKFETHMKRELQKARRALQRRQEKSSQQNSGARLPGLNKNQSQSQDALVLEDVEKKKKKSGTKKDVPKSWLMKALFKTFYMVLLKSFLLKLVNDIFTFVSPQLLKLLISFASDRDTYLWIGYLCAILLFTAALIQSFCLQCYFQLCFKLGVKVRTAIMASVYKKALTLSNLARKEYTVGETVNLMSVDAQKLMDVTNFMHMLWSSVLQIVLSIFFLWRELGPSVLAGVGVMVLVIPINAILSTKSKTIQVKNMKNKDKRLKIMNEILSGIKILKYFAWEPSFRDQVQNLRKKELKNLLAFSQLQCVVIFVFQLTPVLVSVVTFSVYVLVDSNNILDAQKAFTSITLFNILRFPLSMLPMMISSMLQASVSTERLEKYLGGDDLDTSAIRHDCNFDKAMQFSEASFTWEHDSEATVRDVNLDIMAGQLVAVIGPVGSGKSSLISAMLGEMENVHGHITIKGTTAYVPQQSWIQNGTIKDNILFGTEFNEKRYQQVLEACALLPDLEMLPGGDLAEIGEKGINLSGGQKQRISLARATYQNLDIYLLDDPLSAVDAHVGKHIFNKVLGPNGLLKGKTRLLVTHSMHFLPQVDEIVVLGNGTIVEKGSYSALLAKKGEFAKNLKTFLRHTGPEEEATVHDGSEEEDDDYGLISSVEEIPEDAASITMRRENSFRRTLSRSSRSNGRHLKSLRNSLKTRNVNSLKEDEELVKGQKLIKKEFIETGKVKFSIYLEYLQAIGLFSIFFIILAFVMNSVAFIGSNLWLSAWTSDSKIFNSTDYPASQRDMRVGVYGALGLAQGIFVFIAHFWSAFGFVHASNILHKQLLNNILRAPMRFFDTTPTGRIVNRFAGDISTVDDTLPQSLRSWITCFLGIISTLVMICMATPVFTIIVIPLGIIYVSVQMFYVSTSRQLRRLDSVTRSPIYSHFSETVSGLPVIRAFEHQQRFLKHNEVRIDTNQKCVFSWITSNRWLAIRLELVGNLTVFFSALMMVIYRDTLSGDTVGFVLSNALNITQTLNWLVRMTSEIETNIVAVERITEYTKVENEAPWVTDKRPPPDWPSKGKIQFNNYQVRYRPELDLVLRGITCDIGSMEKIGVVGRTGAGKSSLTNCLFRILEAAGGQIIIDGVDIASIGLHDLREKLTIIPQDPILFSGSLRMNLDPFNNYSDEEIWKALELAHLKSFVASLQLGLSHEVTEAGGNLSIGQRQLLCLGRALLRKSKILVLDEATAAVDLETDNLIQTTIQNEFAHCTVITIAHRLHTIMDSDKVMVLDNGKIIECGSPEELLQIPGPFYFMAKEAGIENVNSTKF

[2] = target: ATP-binding cassette sub-family C member 3 (Homo sapiens, UniProt O15438); experiment: Inhibition of human MRP3 overexpressed in Sf9 insect cell membrane vesicles assessed as uptake of [3H]-estradiol-17beta-D-glucuronide in presence of ATP and GSH measured after 10 mins by membrane vesicle transport assay; format: ADME, cell-based
ATP-binding cassette sub-family C member 3, sequence (O15438 whole entry): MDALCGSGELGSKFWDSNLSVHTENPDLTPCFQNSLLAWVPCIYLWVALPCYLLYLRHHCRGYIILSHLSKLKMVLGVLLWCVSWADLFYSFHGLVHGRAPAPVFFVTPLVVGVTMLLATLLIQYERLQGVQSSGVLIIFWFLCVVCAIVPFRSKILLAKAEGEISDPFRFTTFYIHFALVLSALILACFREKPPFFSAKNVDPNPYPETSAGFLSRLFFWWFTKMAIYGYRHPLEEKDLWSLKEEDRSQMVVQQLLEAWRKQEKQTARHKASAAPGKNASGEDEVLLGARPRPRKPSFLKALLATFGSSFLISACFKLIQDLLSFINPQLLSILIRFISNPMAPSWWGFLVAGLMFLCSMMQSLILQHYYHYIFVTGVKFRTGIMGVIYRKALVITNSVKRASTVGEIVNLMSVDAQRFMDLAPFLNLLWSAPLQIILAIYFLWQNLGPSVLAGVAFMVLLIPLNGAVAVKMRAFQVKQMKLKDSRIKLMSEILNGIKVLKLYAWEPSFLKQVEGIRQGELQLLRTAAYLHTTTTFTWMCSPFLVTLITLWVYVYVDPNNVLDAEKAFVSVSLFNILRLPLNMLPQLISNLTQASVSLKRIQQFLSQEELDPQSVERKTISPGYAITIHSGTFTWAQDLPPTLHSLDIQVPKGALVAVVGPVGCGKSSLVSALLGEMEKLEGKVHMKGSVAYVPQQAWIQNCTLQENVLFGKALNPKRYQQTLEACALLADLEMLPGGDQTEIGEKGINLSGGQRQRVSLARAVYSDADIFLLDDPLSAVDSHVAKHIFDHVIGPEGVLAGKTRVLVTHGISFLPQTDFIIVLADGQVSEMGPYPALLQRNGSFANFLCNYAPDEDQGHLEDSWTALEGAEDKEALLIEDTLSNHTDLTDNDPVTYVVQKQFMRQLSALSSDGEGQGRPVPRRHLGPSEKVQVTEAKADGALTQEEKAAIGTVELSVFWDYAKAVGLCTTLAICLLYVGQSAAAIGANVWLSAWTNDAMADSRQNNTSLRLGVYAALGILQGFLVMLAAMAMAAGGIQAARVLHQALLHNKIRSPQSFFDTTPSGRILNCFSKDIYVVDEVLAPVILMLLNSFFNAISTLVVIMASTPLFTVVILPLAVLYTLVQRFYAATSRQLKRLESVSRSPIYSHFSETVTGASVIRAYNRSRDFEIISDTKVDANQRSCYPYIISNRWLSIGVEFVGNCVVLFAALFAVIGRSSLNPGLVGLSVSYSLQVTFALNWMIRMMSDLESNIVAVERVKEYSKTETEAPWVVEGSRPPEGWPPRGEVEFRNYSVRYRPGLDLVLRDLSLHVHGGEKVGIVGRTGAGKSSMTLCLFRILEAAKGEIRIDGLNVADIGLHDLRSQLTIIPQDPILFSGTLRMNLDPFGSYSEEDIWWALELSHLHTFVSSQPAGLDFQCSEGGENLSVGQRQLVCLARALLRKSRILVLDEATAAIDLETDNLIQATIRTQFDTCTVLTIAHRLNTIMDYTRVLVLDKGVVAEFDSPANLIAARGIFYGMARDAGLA

[3] = target: T1, ATP-binding cassette sub-family C member 4 (Homo sapiens, UniProt O15439); experiment: Inhibition of human MRP4 overexpressed in Sf9 cell membrane vesicles assessed as uptake of [3H]-estradiol-17beta-D-glucuronide in presence of ATP and GSH measured after 20 mins by membrane vesicle transport assay; format: ADME, cell-based
T1 sequence (O15439 whole entry): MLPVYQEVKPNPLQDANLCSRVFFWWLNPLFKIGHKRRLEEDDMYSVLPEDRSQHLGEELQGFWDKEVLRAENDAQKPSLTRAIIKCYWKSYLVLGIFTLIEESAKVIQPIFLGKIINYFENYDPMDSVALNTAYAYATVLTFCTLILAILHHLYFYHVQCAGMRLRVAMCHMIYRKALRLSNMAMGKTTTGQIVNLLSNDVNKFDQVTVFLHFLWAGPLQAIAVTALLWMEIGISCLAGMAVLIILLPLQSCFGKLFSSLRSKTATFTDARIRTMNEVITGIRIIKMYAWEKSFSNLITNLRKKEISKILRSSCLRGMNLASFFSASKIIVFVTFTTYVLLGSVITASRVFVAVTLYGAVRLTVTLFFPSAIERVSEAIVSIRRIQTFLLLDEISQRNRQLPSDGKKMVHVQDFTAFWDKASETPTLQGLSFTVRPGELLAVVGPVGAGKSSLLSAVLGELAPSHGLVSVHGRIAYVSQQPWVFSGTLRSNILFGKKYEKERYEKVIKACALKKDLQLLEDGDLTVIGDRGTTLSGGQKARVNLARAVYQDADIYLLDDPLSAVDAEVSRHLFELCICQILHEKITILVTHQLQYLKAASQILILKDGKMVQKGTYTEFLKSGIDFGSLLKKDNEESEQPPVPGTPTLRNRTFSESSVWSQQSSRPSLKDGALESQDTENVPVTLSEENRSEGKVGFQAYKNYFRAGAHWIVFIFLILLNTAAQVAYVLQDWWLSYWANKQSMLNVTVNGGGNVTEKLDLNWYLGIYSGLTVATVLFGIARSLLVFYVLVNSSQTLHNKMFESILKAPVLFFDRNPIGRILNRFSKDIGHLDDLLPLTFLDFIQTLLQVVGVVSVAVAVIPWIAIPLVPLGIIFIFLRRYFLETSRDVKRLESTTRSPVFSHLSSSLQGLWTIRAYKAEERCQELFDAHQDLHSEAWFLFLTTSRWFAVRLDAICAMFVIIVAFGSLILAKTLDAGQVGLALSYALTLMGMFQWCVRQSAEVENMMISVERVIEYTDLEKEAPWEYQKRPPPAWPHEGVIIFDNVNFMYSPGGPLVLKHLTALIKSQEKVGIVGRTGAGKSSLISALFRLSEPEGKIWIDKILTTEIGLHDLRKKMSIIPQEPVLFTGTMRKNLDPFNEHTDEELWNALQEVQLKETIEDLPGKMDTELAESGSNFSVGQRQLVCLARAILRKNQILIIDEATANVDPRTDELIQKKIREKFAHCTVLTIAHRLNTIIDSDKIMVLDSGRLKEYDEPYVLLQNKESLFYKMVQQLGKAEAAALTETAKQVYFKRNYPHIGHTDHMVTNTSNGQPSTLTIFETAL

Bile salt export pump, sequence (O95342 whole entry): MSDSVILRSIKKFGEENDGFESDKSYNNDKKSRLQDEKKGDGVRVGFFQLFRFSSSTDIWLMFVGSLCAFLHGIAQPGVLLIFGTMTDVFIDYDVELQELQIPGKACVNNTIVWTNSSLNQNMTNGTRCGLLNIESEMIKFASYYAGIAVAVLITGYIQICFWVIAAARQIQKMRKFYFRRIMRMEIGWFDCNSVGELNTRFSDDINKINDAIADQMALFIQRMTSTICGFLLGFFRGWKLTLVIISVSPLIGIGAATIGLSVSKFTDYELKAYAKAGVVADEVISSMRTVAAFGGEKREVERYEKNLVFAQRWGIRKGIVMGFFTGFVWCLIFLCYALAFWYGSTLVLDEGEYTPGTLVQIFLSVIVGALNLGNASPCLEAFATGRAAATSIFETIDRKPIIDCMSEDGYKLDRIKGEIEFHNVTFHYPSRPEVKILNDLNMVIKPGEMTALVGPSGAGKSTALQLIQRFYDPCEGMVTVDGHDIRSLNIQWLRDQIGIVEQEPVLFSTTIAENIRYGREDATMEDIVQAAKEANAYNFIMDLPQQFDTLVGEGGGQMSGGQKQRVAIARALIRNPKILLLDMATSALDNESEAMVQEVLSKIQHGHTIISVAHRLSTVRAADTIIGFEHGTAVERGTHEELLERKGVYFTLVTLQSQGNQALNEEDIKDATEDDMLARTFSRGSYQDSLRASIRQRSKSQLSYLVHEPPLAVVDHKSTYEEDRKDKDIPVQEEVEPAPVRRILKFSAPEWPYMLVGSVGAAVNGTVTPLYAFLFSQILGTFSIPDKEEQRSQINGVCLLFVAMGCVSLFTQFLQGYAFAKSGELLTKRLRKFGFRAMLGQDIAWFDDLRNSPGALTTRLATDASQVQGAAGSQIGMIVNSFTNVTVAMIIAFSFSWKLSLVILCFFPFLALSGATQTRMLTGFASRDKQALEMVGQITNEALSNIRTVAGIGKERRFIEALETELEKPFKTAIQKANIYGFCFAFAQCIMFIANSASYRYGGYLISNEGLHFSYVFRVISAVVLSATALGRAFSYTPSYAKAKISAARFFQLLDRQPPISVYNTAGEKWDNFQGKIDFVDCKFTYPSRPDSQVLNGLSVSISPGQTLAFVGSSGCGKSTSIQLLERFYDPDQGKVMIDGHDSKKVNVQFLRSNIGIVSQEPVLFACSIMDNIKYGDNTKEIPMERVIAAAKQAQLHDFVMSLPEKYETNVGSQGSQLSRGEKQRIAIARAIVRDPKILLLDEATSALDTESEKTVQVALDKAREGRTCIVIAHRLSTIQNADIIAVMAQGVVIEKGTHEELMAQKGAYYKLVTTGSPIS

Structure (SMILES) | IC50 (Bile salt export pump) [µM] | IC50 [1] [µM] | IC50 [2] [µM] | IC50 [3] [µM]
CCN(CCO)CCCC(C)Nc1ccnc2cc(Cl)ccc12 (configuration not stated) [HYDROXYCHLOROQUINE SULFATE] | > 133 | > 133 | > 133 | > 133
c1ccc2c(c1)OCC(C1=NCCN1)O2 (configuration not stated) [IDAZOXAN] | > 133 | > 133 | > 133 | > 133
O=P1(NCCCl)OCCCN1CCCl (configuration not stated) [IFOSFAMIDE] | > 133 | > 133 | > 133 | > 133
CC(C)Cn1cnc2c(N)nc3ccccc3c21 [IMIQUIMOD] | > 133 | > 133 | > 133 | > 133
Nc1cc(-c2ccncc2)c[nH]c1=O [INAMRINONE] | > 133 | > 133 | > 133 | > 133
CC1Cc2ccccc2N1NC(=O)c1ccc(Cl)c(S(N)(=O)=O)c1 (configuration not stated) [INDAPAMIDE] | > 133 | > 133 | > 133 | > 133
O=C(NC1CCN(CCc2c[nH]c3ccccc23)CC1)c1ccccc1 [INDORAMIN] | > 133 | > 133 | > 133 | > 133
CC(=O)N(CC(O)CO)c1c(I)c(C(=O)NCC(O)CO)c(I)c(C(=O)NCC(O)CO)c1I (configuration not stated) [IOHEXOL] | > 133 | > 133 | > 133 | > 133
CC(C)NNC(=O)c1ccncc1 [IPRONIAZID] | > 133 | > 133 | > 133 | > 133
NNC(=O)c1ccncc1 [ISONIAZID] | > 133 | > 133 | > 133 | > 133
Cc1cc(NC(=O)C2=C(O)c3ccccc3S(=O)(=O)N2C)no1 [ISOXICAM] | > 133 | > 133 | > 133 | > 133
NC[C@H]1O[C@H](O[C@H]2[C@H](O)[C@@H](O[C@H]3O[C@H](CO)[C@@H](O)[C@H](N)[C@H]3O)[C@H](N)C[C@@H]2N)[C@H](O)[C@@H](O)[C@@H]1O [KANAMYCIN] | > 133 | > 133 | > 133 | > 133
CNC1(c2ccccc2Cl)CCCCC1=O (configuration not stated) [KETAMINE] | > 133 | > 133 | > 133 | > 133
O=C(c1ccc(F)cc1)C1CCN(CCn2c(=O)[nH]c3ccccc3c2=O)CC1 [KETANSERIN] | > 133 | > 133 | > 133 | > 133
O=C(c1ccccc1)c1ccc2n1CCC2C(=O)O (configuration not stated) [KETOROLAC TROMETHAMINE] | > 133 | > 133 | > 133 | 2.7
CN1CCC(=C2c3ccccc3CC(=O)c3sccc32)CC1 [KETOTIFEN FUMARATE] | > 133 | > 133 | > 133 | > 133
COC[C@@H](NC(C)=O)C(=O)NCc1ccccc1 [LACOSAMIDE] | > 133 | > 133 | > 133 | > 133
Cc1c(OCC(F)(F)F)ccnc1C[S+]([O-])c1nc2ccccc2[nH]1 (configuration not stated) [LANSOPRAZOLE] | > 133 | > 133 | > 133 | > 133
Cc1oncc1C(=O)Nc1ccc(C(F)(F)F)cc1 [LEFLUNOMIDE] | > 133 | > 133 | > 133 | > 133

Structure (SMILES) | IC50 (Bile salt export pump) [µM] | IC50 [1] [µM] | IC50 [2] [µM] | IC50 [3] [µM]
Nc1cccc2c1CN(C1CCC(=O)NC1=O)C2=O (configuration not stated) [LENALIDOMIDE] | > 133 | > 133 | > 133 | > 133
Nc1nc2c(c(=O)[nH]1)N(C=O)C(CNc1ccc(C(=O)N[C@@H](CCC(=O)O)C(=O)O)cc1)CN2 (some centres not stated) [LEUCOVORIN CALCIUM] | > 133 | > 133 | > 133 | > 133
CCNC(=O)[C@@H]1CCCN1C(=O)[C@H](CCCNC(=N)N)NC(=O)[C@H](CC(C)C)NC(=O)[C@@H](CC(C)C)NC(=O)[C@H](Cc1ccc(O)cc1)NC(=O)[C@H](CO)NC(=O)[C@H](Cc1c[nH]c2ccccc12)NC(=O)[C@H](Cc1c[nH]cn1)NC(=O)[C@@H]1CCC(=O)N1 [LEUPROLIDE ACETATE] | > 133 | 80.2 | > 133 | > 133
N[C@@H](Cc1ccc(O)c(O)c1)C(=O)O [LEVODOPA] | > 133 | > 133 | > 133 | > 133
C[C@H]1COc2c(N3CCN(C)CC3)c(F)cc3c(=O)c(C(=O)O)cn1c23 [LEVOFLOXACIN] | > 133 | > 133 | > 133 | > 133
C#C[C@]1(O)CC[C@H]2[C@@H]3CCC4=CC(=O)CC[C@@H]4[C@H]3CC[C@@]21CC [LEVONORGESTREL] | > 133 | > 133 | > 133 | > 133
CCN1CCC[C@H]1CNC(=O)c1cc(S(N)(=O)=O)ccc1OC [LEVOSULPIRIDE] | > 133 | > 133 | > 133 | > 133
CC(=O)NC[C@H]1CN(c2ccc(N3CCOCC3)c(F)c2)C(=O)O1 [LINEZOLID] | > 133 | > 133 | > 133 | > 133
CN(CCCN1c2ccccc2CCc2ccccc21)CC(=O)c1ccc(Cl)cc1 [LOFEPRAMINE] | > 133 | > 133 | > 133 | > 133
O=NN(CCCl)C(=O)NC1CCCCC1 [LOMUSTINE] | > 133 | > 133 | > 133 | > 133
CN1C(C(=O)Nc2ccccn2)=C(O)c2sc(Cl)cc2S1(=O)=O [LORNOXICAM] | 7.56 | > 133 | > 133 | > 133
CCOC(=O)O[C@]1(C(=O)OCCl)CC[C@H]2[C@@H]3CCC4=CC(=O)C=C[C@]4(C)[C@H]3[C@@H](O)C[C@@]21C [LOTEPREDNOL ETABONATE] | 40.4 | > 133 | 15.5 | > 133
NCc1ccc(S(N)(=O)=O)cc1 [MAFENIDE ACETATE] | > 133 | > 133 | > 133 | > 133
Cc1nnc(C(C)C)n1[C@@H]1C[C@H]2CC[C@@H](C1)N2CC[C@H](NC(=O)C1CCC(F)(F)CC1)c1ccccc1 [MARAVIROC] | 110 | > 133 | > 133 | > 133
Cc1cccc(Nc2ccccc2C(=O)O)c1C [MEFENAMIC ACID] | > 133 | > 133 | > 133 | > 133
COc1ccc2[nH]cc(CCNC(C)=O)c2c1 [MELATONIN] | > 133 | > 133 | > 133 | > 133
CC1CCN(CCCC(=O)c2ccc(F)cc2)CC1 [MELPERONE] | > 133 | > 133 | > 133 | > 133
C[C@@H](O)[C@H]1C(=O)N2C(C(=O)O)=C(S[C@@H]3CN[C@H](C(=O)N(C)C)C3)[C@H](C)[C@H]12 [MEROPENEM] | > 133 | > 133 | > 133 | > 133
O=S(=O)(O)CCS [MESNA] | > 133 | > 133 | > 133 | > 133

From ChEMBL document CHEMBL4028801, “A multifactorial approach to hepatobiliary transporter assessment enables improved therapeutic compound development” (Toxicol Sci, 2013)
